According to article PMC9794698, “Structure optimization of new tumor-selective Passerini α-acyloxy carboxamides as Caspase-3/7 activators” (Scientific Reports, 2022):
“And” between values parts separate entries of the source, which are not always exact repeats. Identical values can stand only once. Like-named read-outs stand apart in the source and are kept apart here.

Columns and labels:
[1] = system: caspase-3/7; assay: Caspase-3/7 activation assay (ApoONE kit) in HepG-2 cells; type: cell-based, human; conditions: HepG-2 cells treated with IC50 doses; relative to untreated cells; mean ± SEM
Protocol: (§1) ApoONE® Caspase-3/7 kit was used following the manufacturer’s instructions (Supplementary data).
(§2) 5.2. Caspase-3/7 activation assay
(§3) The caspase 3/7 activation was assessed, as a key indicator in caspase-dependent apoptosis, using ApoONE® Caspase-3/7 kit following the manufacturer’s instructions. This kit used a nonfluorescence substrate […]
(§4) the generation of the fluorescence signals of Rhodamine 110. Thesesignal were measured at 490 nm excitation and 520 nm emission using the fluorescence microplate reader (BMG LabTech, Germany). […]

[2] = system: Bcl2; assay: RT-qPCR of Bcl2 expression in Caco-2 cells; type: cell-based, human; conditions: 0.06 µM for 72 h, mean ± SEM
Protocol: (§5) RNAs of untreated and treated cancer cells were extracted using Gene JET RNA purification kit (Thermo Scientific, USA). Then cDNAs were synthesized using cDNA Synthesis Kit (Thermo Scientific, USA). Real time PCR was performed using SYBR green master mix and specific primers (Forward/Reverse) as detailed in the supplementary data. […]
5.3. Real-time Quantitative PCR Analysis of Bcl2 […]
as §5, with “µM, for 72 h in 5% CO2 incubator. RNAs” for “RNAs”, “primers” for “primers (Forward/Reverse) as detailed in the supplementary data.”
The thermal cycling parameters were pre-denaturation, followed by 40 amplification cycles of 1 min at 95°C and 30 s at 60 °C and at 72°C for 30 sec. GAPDH mRNA was quantified to adjust the amount of mRNA in each sample. The 2−ΔΔCT equation was used to estimate change in gene expressions before and after treatment of cancer cells.
Table 1 primer sequences of the used genes

[3] = system: HepG-2 cells; assay: MTT cytotoxicity assay, liver cancer cells; type: cell-based, human; conditions: for IC50: Homo sapiens, HepG2; for HepG-2 SI: ratio of IC50 against normal cells (Wi-38) to IC50 against HepG-2
Protocol: (§6) Wi-38, Caco-2 and HepG-2 cells were cultured in DMEM medium-contained 10% FBS, seeded as 5 × 10^3 cells per well in 96-well cell culture plate and incubated at 37 °C in 5% CO2 incubator. After 24 h, serial concentrations of the test compounds were incubated with cells for 72 h. Cell viability was assayed via MTT protocol[27] (Supplementary data). IC50 values of the synthesized compounds were measured via the Graphpad Instat software. Morphological changes were examined using phase contrast inverted microscope with a digital camera (Olympus, Japan). […]
(§7) Normal human lung fibroblast Wi-38 cell line was used to detect cytotoxicity of the studied compounds.
(§8) Wi-38 cell line was cultured in DMEM medium-contained 10% fetal bovine serum (FBS), seeded as 5x10^3 cells per well in 96-well cell culture plate and incubated at 37 °C in 5% CO2 incubator. After 24 h for cell attachment, serial concentrations of the synthetic compounds and standard chemotherapy (5-fluorouracil) were incubated with Wi-38 cells for 72 h. Cell viability was assayed by MTT method Twenty microliters of 5 mg/ml MTT (Sigma, USA) was added to each well and the plate was incubated at 37 °C for 3 h. Then MTT solution was removed, 100 µl DMSO was added, and the absorbance of each well was measured with a microplate reader (BMG LabTech, Germany) at 570 nm. The dose (EC50 and EC100) values (at 50% and100% cell viability, respectively) of the tested compounds was estimated by the Graphpad Instat software.
(§9) The anticancer effect of the above-mentioned compounds was assayed using human colon cancer cell line (Caco-2) and liver cancer cell line (HepG-2) that were cultured in DMEM (Lonza, USA) supplemented with 10%
(§10) FBS. All cancer cells (5x10^3 cells/well) were seeded in sterile 96-well plates. After 24h, serial concentrations of the tested compounds and 5-fluorouracil (Fu) were incubated with two cancer cell lines for 72 h at 37 °C in 5% CO2 incubator. MTT method was done as described above. The half maximal inhibitory concentration (IC50) values were calculated using the Graphpad Instat software. Furthermore, cellular morphological changes before […]
(§11) contrast inverted microscope with a digital camera (Olympus, Japan).

[4] = system: Caco-2 cells; assay: MTT cytotoxicity assay, colorectal cancer cells; type: cell-based, human; conditions: for IC50: Homo sapiens; for Caco-2 SI: ratio of IC50 against normal cells (Wi-38) to IC50 against Caco-2
Protocol: as §6, §7, §8, §9, §10, §11

[5] = system: caspase-3/7; assay: Caspase-3/7 activation assay (ApoONE kit) in Caco-2 cells; type: cell-based, human; conditions: Caco-2 cells treated with IC50 doses; relative to untreated cells; mean ± SEM
Protocol: as §1, §2, §3, §4

[6] = system: Wi-38 cells; assay: MTT cytotoxicity assay, normal human fibroblasts; type: cell-based; conditions: 72 h, mean ± SEM; for MNTC: dose at 100% cell viability, read-out: Wi-38 EC100
Protocol: as §6, §7
as §8, with “software. […]” for “software.”

[7] = system: Caco-2 cells; assay: Flow cytometric analysis of apoptosis (annexin V/PI); type: cell-based, human; conditions: IC50 doses, 72 h, annexin-stained, mean ± SEM
Protocol: Reverse: 5′-[…]-3′
5.4. Flow cytometric analysis of apoptosis […]
human colon cancer cell line (Caco-2) for 72 h, at their minimum IC50 doses. After trypsinization, the untreated and treated cancer cells were stained with fluorescein isothiocyanate (FITC)-annexin V/ propidium iodide (PI) for 15 min. After washing with PBS, the annexin-stained apoptotic population was quantified using flow cytometry at FITC signal detector (FL1) against the phycoerythrin emission signal detector (FL2).

[8] = MTT, 72 h, mean ± SEM, read-out: HepG-2 IC50
[9] = Caco-2, MTT, 72 h, mean ± SEM, read-out: Caco-2 IC50 (converted)
[10] = microscopic examination after 72 h, compared to untreated and 5-FU-treated cells

Row | SMILES | Relative fold increment in caspase 3/7 activity, HepG-2 [1] | Bcl2 gene relative fold change [2] | IC50 [3, 8] | HepG-2 SI [3] | IC50 [4, 9] | Caco-2 SI [4] | Relative fold increment in caspase 3/7 activity, Caco-2 [5] | MNTC [6] | IC50 [6] | melting point | IC50 ([3]; read-out: HepG-2 pIC50 (converted)) | Morphological alterations of treated HepG-2 cells [3, 10] | SI against the screened cell lines ([4]; Caco-2 and HepG-2 cells versus Wi-38) | IC50 ([4]; Caco-2, -log (IC50), molar, read-out: Caco-2 IC50 (converted)) | IC50 ([4]; Caco-2 and HepG-2 cells, MTT, read-out: IC50 against the screened cell lines) | Caco-2 LE ([4]; LE = 1.37 (pIC50)/NHA) | Caco-2 LLE ([4]; LLE = pIC50–cLog P) | Morphological alterations of treated Caco-2 cells [4, 10] | % Apoptosis (total apoptotic cell population) [7]
1 | O=c1[nH]cc(F)c(=O)[nH]1 [5-FU, 5-fluorouracil, reference compound] | 1.001 ± 0.001 fold | 0.948 ± 0.027 fold | 1.61 ± 0.028 µM | 1.233 | 0.865 ± 0.039 µM | 2.301 | 1.016 ± 0.009 fold | 840 ± 55 nM | 1.99 ± 0.135 µM | – | – | – | – | – | – | – | – | – | –
2 | CCOC(=O)c1ccc(NC(=O)C2(OC(=O)c3ccc4ccccc4n3)CCCCC2)cc1 [7b, 1-((4-(Ethoxycarbonyl)phenyl)carbamoyl)cyclohexyl quinoline-2-carboxylate] | – | – | 0.228 ± 0.027 µM | 79.736 | 0.172 ± 0.022 µM | 105.697 | – | 1790 ± 111 nM | 18.2 ± 2.22 µM | 103 to 105 °C | – | – | – | – | – | – | – | – | –
3 | CCOC(=O)c1ccc(NC(=O)C2(OC(=O)c3ccccc3)CCCCC2)cc1 [7c, Ethyl-4-(1-(benzoyloxy)cyclohexanecarboxamido)benzoate] | – | – | 0.184 ± 0.009 µM | 41.864 | 0.276 ± 0.034 µM | 27.909 | – | 2100 ± 92 nM | 7.7 ± 0.321 µM | 140 to 142 °C | – | – | – | – | – | – | – | – | –
4 | CCOC(=O)c1ccc(NC(=O)C2(OC(=O)c3ccc(Cl)cc3)CCCCC2)cc1 [7d, 1-((4-(Ethoxycarbonyl)phenyl)carbamoyl)cyclohexyl 4-chlorobenzoate] | – | – | 0.407 ± 0.016 µM | 60.830 | 0.201 ± 0.019 µM | 123.174 | – | 1700 ± 165 nM | 24.8 ± 10.2 µM | 193 to 195 °C | – | – | – | – | – | – | – | – | –
5 | CCOC(=O)c1ccc(NC(=O)C2(OC(=O)c3ccccc3Cl)CCCCC2)cc1 [7e, 1-((4-(Ethoxycarbonyl)phenyl)carbamoyl)cyclohexyl 2-chlorobenzoate] | – | – | 0.13 ± 0.009 µM | 151.938 | 0.117 ± 0.01 µM | 168.820 | – | 1780 ± 169 nM | 19.8 ± 1.02 µM | 130 to 132 °C | – | – | – | – | – | – | – | – | –
6 | CCOC(=O)c1ccc(NC(=O)C2(OC(=O)c3ccccc3I)CCCCC2)cc1 [7f, 1-((4-(Ethoxycarbonyl)phenyl)carbamoyl)cyclohexyl 2-iodobenzoate] | – | – | 0.147 ± 0.046 µM | 116.020 | 0.129 ± 0.028 µM | 132.209 | – | 967 ± 26 nM | 17.1 ± 1.69 µM | 148 to 150 °C | – | – | – | – | – | – | – | – | –
7 | CCOC(=O)c1ccc(NC(=O)C2(OC(=O)Cc3ccccc3)CCCCC2)cc1 [7g, Ethyl-4-(1-(2-phenylacetoxy)cyclohexanecarboxamido)benzoate] | 4.118 ± 0.083 fold | 0.087 ± 0.009 fold | 0.065 ± 0.004 µM | 262.723 | 0.064 ± 0.006 µM | 266.828 | – | 1300 ± 105 nM | 17.1 ± 2.15 µM | – | 0.065 µM | severe shrinkage and morphological alterations | 262–266 | 0.0641 µM | 0.06 µM | 0.328 | 3.453 | severe shrinkage and morphological alterations | 58.7% and 58.730 ± 2.930%
8 | CCOC(=O)c1ccc(NC(=O)C2(OC(=O)C=Cc3ccc(C(F)(F)F)cc3)CCCCC2)cc1 [7h, Ethyl-4-(1-((3-(4-(trifluoromethyl)phenyl)acryloyl)oxy)cyclohexanecarboxamido)benzoate] | – | – | 0.259 ± 0.073 µM | 72.111 | 0.138 ± 0.014 µM | 135.340 | – | 1650 ± 39 nM | 18.7 ± 2.04 µM | 145 to 147 °C | – | – | – | – | – | – | – | – | –
9 | CCOC(=O)c1ccc(NC(=O)C2(OC(=O)CNC(=O)c3ccc(NC(=O)OC(C)(C)C)cc3)CCCCC2)cc1 [7i, Ethyl-4-(1-(2-(4-((tert-butoxycarbonyl)amino)benzamido)acetoxy)cyclohexanecarboxamido) benzoate] | – | – | 0.127 ± 0.044 µM | 179.566 | 0.132 ± 0.05 µM | 172.765 | – | 1630 ± 259 nM | 22.8 ± 3.1 µM | 115 to 117 °C | – | – | – | – | – | – | – | – | –
10 | CCOC(=O)c1ccc(NC(=O)C2(OC(=O)CS)CCCCC2)cc1 [7k, Ethyl-4-(1-(2-mercaptoacetoxy)cyclohexane-1-carboxamido)benzoate] | – | – | 0.141 µM | 68.567 | 0.14 ± 0.003 µM | 69.057 | – | 1465 ± 10 nM | 9.67 ± 0.102 µM | 108 to 110 °C | – | – | – | – | – | – | – | – | –
11 | CCOC(=O)c1ccc(NC(=O)C2(O)CCCCC2)cc1 [compound 9, Ethyl 4-(1-hydroxycyclohexanecarboxamido)benzoate] | – | – | 0.15 ± 0.004 µM | 112.186 | 0.154 ± 0.007 µM | 109.272 | – | 3220 ± 217 nM | 16.8 ± 3.01 µM | 160 to 163 °C | – | – | – | – | – | – | – | – | –
12 | CCOC(=O)c1ccc(N2C(=O)OC3(CCCCC3)C2=O)cc1 [compound 11, Ethyl-4-(2,4-dioxo-1-oxa-3-azaspiro[4.5]decan-3-yl)benzoate] | – | – | 0.209 ± 0.017 µM | 47.468 | 0.239 ± 0.071 µM | 41.510 | – | 4940 ± 1540 nM | 9.92 ± 1.61 µM | 143 to 145 °C | – | – | – | – | – | – | – | – | –
